Measurements from PubChem BioAssay AID1259407 (Chemical Carcinogenesis Research Information System (CCRIS), 2018).
Calls of active or inactive are those of the source. The rule behind the calls is not given here.

System: CCRIS mutagenicity, Ames/micronucleus/aberration tests
Assay: CCRIS mutagenicity studies
[1] = Test System: AMES SALMONELLA TYPHIMURIUM, Strain/Indicator: TA98, Metabolic Activation: NONE, Method: STANDARD PLATE
[2] = Test System: AMES SALMONELLA TYPHIMURIUM, Strain/Indicator: TA100, Metabolic Activation: NONE, Method: STANDARD PLATE
[3] = Test System: AMES SALMONELLA TYPHIMURIUM, Strain/Indicator: TA97, Metabolic Activation: HAMSTER, LIVER, S-9, AROCLOR 1254 (10 OR 30%), Method: PREINCUBATION
[4] = Test System: AMES SALMONELLA TYPHIMURIUM, Strain/Indicator: TA97, Metabolic Activation: NONE, Method: PREINCUBATION
[5] = Test System: AMES SALMONELLA TYPHIMURIUM, Strain/Indicator: TA97, Metabolic Activation: RAT, LIVER, S-9, AROCLOR 1254 (10 OR 30%), Method: PREINCUBATION
[6] = Test System: AMES SALMONELLA TYPHIMURIUM, Strain/Indicator: TA98, Metabolic Activation: HAMSTER, LIVER, S-9, AROCLOR 1254 (10 OR 30%), Method: PREINCUBATION
[7] = Test System: AMES SALMONELLA TYPHIMURIUM, Strain/Indicator: TA98, Metabolic Activation: NONE, Method: PREINCUBATION
[8] = Test System: AMES SALMONELLA TYPHIMURIUM, Strain/Indicator: TA98, Metabolic Activation: RAT, LIVER, S-9, AROCLOR 1254 (10 OR 30%), Method: PREINCUBATION
[9] = Test System: AMES SALMONELLA TYPHIMURIUM, Strain/Indicator: TA100, Metabolic Activation: HAMSTER, LIVER, S-9, AROCLOR 1254 (10 OR 30%), Method: PREINCUBATION
[10] = Test System: AMES SALMONELLA TYPHIMURIUM, Strain/Indicator: TA100, Metabolic Activation: NONE, Method: PREINCUBATION
[11] = Test System: AMES SALMONELLA TYPHIMURIUM, Strain/Indicator: TA100, Metabolic Activation: RAT, LIVER, S-9, AROCLOR 1254 (10 OR 30%), Method: PREINCUBATION
[12] = Test System: AMES SALMONELLA TYPHIMURIUM, Strain/Indicator: TA1535, Metabolic Activation: HAMSTER, LIVER, S-9, AROCLOR 1254 (10 OR 30%), Method: PREINCUBATION
[13] = Test System: AMES SALMONELLA TYPHIMURIUM, Strain/Indicator: TA1535, Metabolic Activation: NONE, Method: PREINCUBATION
[14] = Test System: AMES SALMONELLA TYPHIMURIUM, Strain/Indicator: TA1535, Metabolic Activation: RAT, LIVER, S-9, AROCLOR 1254 (10 OR 30%), Method: PREINCUBATION

**Q.** What does the source list for `CCCCCCCCCc1ccccc1Oc1ccccc1CCCCCCCCC`?
**A.** mutagenic call (Test System: AMES SALMONELLA TYPHIMURIUM, Strain/Indicator: TA97, Metabolic Activation: NONE, Method: STANDARD PLATE): inactive; negative; mutagenic call (Test System: AMES SALMONELLA TYPHIMURIUM, Strain/Indicator: TA97, Metabolic Activation: S-9, Method: STANDARD PLATE): inactive; negative; mutagenic call [1]: inactive; negative; mutagenic call (Test System: AMES SALMONELLA TYPHIMURIUM, Strain/Indicator: TA98, Metabolic Activation: S-9, Method: STANDARD PLATE): inactive; negative; mutagenic call [2]: inactive; negative; mutagenic call (Test System: AMES SALMONELLA TYPHIMURIUM, Strain/Indicator: TA100, Metabolic Activation: S-9, Method: STANDARD PLATE): inactive; negative; mutagenic call (Test System: AMES SALMONELLA TYPHIMURIUM, Strain/Indicator: TA102, Metabolic Activation: NONE, Method: STANDARD PLATE): inactive; negative; mutagenic call (Test System: AMES SALMONELLA TYPHIMURIUM, Strain/Indicator: TA102, Metabolic Activation: S-9, Method: STANDARD PLATE): inactive; negative; mutagenic call (Test System: E.COLI, Strain/Indicator: WP2 (PKM101), Metabolic Activation: NONE, Method: STANDARD PLATE): inactive; negative; mutagenic call (Test System: E.COLI, Strain/Indicator: WP2 (PKM101), Metabolic Activation: S-9, Method: STANDARD PLATE): inactive; negative

**Q.** How did the mutagenic call (Test System: CHINESE HAMSTER V-79, Strain/Indicator: V-79/6-THIOGUANINE, Metabolic Activation: NONE) turn out when `OC1(c2ccc(Cl)cc2)c2ccccc2C2=NCCN21` (centres undefined) was run?
**A.** active; positive

**Q.** What about the mutagenic call (Test System: CHINESE HAMSTER V-79, Strain/Indicator: V-79/6-THIOGUANINE, Metabolic Activation: S-9) of the same molecule?
**A.** active; positive

**Q.** How did the mutagenic call [3] turn out when `Nc1cc(Cl)cc(S(=O)(=O)O)c1O` was run?
**A.** inactive; negative

**Q.** And the mutagenic call [4]?
**A.** inactive; negative

**Q.** What about the mutagenic call [5] of the same molecule?
**A.** inactive; negative

**Q.** And the mutagenic call [6]?
**A.** inactive; negative

**Q.** And the mutagenic call [7]?
**A.** inactive; negative

**Q.** And the mutagenic call [8]?
**A.** inactive; negative

**Q.** What about the mutagenic call [9] of the same molecule?
**A.** inactive; negative

**Q.** And the mutagenic call [10]?
**A.** inactive; negative

**Q.** And the mutagenic call [11]?
**A.** inactive; negative

**Q.** And the mutagenic call [12]?
**A.** inactive; negative

**Q.** What about the mutagenic call [13] of the same molecule?
**A.** inactive; negative

**Q.** What about the mutagenic call [14] of the same molecule?
**A.** inactive; negative

**Q.** How did the mutagenic call (Test System: AMES SALMONELLA TYPHIMURIUM, Strain/Indicator: TA100, Metabolic Activation: GUINEA PIG, LIVER, MICROSOMAL FRACTION, PCB) turn out when `CC(=O)N(O[C@@H]1O[C@H](CO)[C@@H](O)[C@H](O)[C@H]1O)c1ccc(Oc2ccc(Cl)cc2)cc1` was run?
**A.** active; positive

**Q.** What about the mutagenic call (Test System: AMES SALMONELLA TYPHIMURIUM, Strain/Indicator: TA100, Metabolic Activation: GUINEA PIG, LIVER, S-9, PCB) of the same molecule?
**A.** active; positive

**Q.** And the mutagenic call (Test System: AMES SALMONELLA TYPHIMURIUM, Strain/Indicator: TA100, Metabolic Activation: GUINEA PIG, LIVER, S-105, PCB)?
**A.** inactive; negative

**Q.** `CN(C)c1nc(=O)n(C2CCCCC2)c(=O)n1C` was tested. Which mutagenic call (End Point: In vitro chromosomal aberrations, Test System: Chinese hamster ovary (CHO) cells, Metabolic Activation: None) did it give?
**A.** active; positive

**Q.** What about the mutagenic call (End Point: In vitro chromosomal aberrations, Test System: Chinese hamster ovary (CHO) cells, Metabolic Activation: S-9) of the same molecule?
**A.** inactive; negative

**Q.** How did the mutagenic call [1] turn out when `Nc1cccc2cc3ccccc3cc12` was run?
**A.** inactive; negative

**Q.** And the mutagenic call (Test System: AMES SALMONELLA TYPHIMURIUM, Strain/Indicator: TA98, Metabolic Activation: RAT LIVER, CYTOSOL, AROCLOR 1254, Method: STANDARD PLATE)?
**A.** inactive; negative

**Q.** What about the mutagenic call (Test System: AMES SALMONELLA TYPHIMURIUM, Strain/Indicator: TA98, Metabolic Activation: RAT LIVER, MICROSOMES, AROCLOR 1254, Method: STANDARD PLATE) of the same molecule?
**A.** active; positive

**Q.** And the mutagenic call (Test System: AMES SALMONELLA TYPHIMURIUM, Strain/Indicator: TA98, Metabolic Activation: RAT, LIVER, S-9, AROCLOR 1254 (2 OR 4%), Method: STANDARD PLATE)?
**A.** active; positive

**Q.** And the mutagenic call (Test System: AMES SALMONELLA TYPHIMURIUM, Strain/Indicator: TA98, Metabolic Activation: RAT, LIVER, S-9, AROCLOR 1254, Method: STANDARD PLATE)?
**A.** active; positive

**Q.** And the mutagenic call (Test System: AMES SALMONELLA TYPHIMURIUM, Strain/Indicator: TA98, Metabolic Activation: RAT, LIVER, S-9, PHENOBARBITAL, Method: STANDARD PLATE)?
**A.** active; positive

**Q.** And the mutagenic call [2]?
**A.** inactive; negative

**Q.** What about the mutagenic call (Test System: AMES SALMONELLA TYPHIMURIUM, Strain/Indicator: TA100, Metabolic Activation: RAT, LIVER, S-9, AROCLOR 1254 (2%), Method: STANDARD PLATE) of the same molecule?
**A.** inactive; negative

**Q.** What about the mutagenic call (Test System: AMES SALMONELLA TYPHIMURIUM, Strain/Indicator: TA100, Metabolic Activation: RAT, LIVER, S-9, AROCLOR 1254, Method: STANDARD PLATE) of the same molecule?
**A.** active; positive

**Q.** And the mutagenic call (Test System: AMES SALMONELLA TYPHIMURIUM, Strain/Indicator: TA100, Metabolic Activation: RAT, LIVER, S-9, PHENOBARBITAL, Method: STANDARD PLATE)?
**A.** active; positive

**Q.** And the mutagenic call (Test System: AMES SALMONELLA TYPHIMURIUM, Strain/Indicator: TA1535, Metabolic Activation: RAT, LIVER, S-9, AROCLOR 1254 (2%), Method: STANDARD PLATE)?
**A.** active; positive

**Q.** And the mutagenic call (Test System: AMES SALMONELLA TYPHIMURIUM, Strain/Indicator: TA1537, Metabolic Activation: RAT, LIVER, S-9, AROCLOR 1254 (2%), Method: STANDARD PLATE)?
**A.** active; positive

**Q.** What about the mutagenic call (Test System: MOUSE LYMPHOMA, Strain/Indicator: L5178Y (TK+/TK-), Metabolic Activation: RAT, LIVER, S-9, AROCLOR 1254, Method: SUSPENSION/PLATE) of the same molecule?
**A.** active; positive

**Q.** What does the source list for `Cc1ccc(C(=O)Cl)cc1`?
**A.** mutagenic call [7]: inactive; negative; mutagenic call (Test System: AMES SALMONELLA TYPHIMURIUM, Strain/Indicator: TA98, Metabolic Activation: RAT LIVER S-9, PCB, Method: PREINCUBATION): inactive; negative; mutagenic call [10]: active; positive; mutagenic call (Test System: AMES SALMONELLA TYPHIMURIUM, Strain/Indicator: TA100, Metabolic Activation: RAT LIVER S-9, PCB, Method: PREINCUBATION): active; positive; mutagenic call (Test System: AMES SALMONELLA TYPHIMURIUM, Strain/Indicator: TA104, Metabolic Activation: NONE, Method: PREINCUBATION): active; positive; mutagenic call (Test System: AMES SALMONELLA TYPHIMURIUM, Strain/Indicator: TA104, Metabolic Activation: RAT LIVER S-9, PCB, Method: PREINCUBATION): active; positive; mutagenic call (Test System: E.COLI, Strain/Indicator: WP2 UVRA, Metabolic Activation: NONE, Method: PREINCUBATION): active; positive; mutagenic call (Test System: E.COLI, Strain/Indicator: WP2 UVRA, Metabolic Activation: RAT LIVER S-9, PCB, Method: PREINCUBATION): active; positive

**Q.** With `COc1cc(-c2ccc(N/N=C3\C=C(S(=O)(=O)O)c4ccccc4C3=O)c(OC)c2)ccc1N=Nc1cc(S(=O)(=O)O)c2ccccc2c1N` as the molecule, how does the mutagenic call [3] read?
**A.** inactive; negative

**Q.** And the mutagenic call [4]?
**A.** inactive; negative

**Q.** And the mutagenic call [5]?
**A.** inactive; negative

**Q.** What about the mutagenic call [6] of the same molecule?
**A.** inactive; negative

**Q.** And the mutagenic call [7]?
**A.** inactive; negative

**Q.** What about the mutagenic call [8] of the same molecule?
**A.** inactive; negative

**Q.** And the mutagenic call [9]?
**A.** inactive; negative

**Q.** What about the mutagenic call [10] of the same molecule?
**A.** inactive; negative

**Q.** What about the mutagenic call [11] of the same molecule?
**A.** inactive; negative

**Q.** What about the mutagenic call [12] of the same molecule?
**A.** inactive; negative

**Q.** And the mutagenic call [13]?
**A.** inactive; negative

**Q.** And the mutagenic call [14]?
**A.** inactive; negative

**Q.** And the mutagenic call (Test System: AMES SALMONELLA TYPHIMURIUM, Strain/Indicator: TA1538, Metabolic Activation: HAMSTER, LIVER, S-9, Method: STANDARD PLATE)?
**A.** inactive; negative

**Q.** And the mutagenic call (Test System: AMES SALMONELLA TYPHIMURIUM, Strain/Indicator: TA1538, Metabolic Activation: RAT, LIVER, S-9, AROCLOR 1254, Method: STANDARD PLATE)?
**A.** inactive; negative
